Measured values reported in US20250346574A1, “PYRIDINYL SUBSTITUTED OXOISOINDOLINE COMPOUNDS FOR THE TREATMENT OF CANCER” (Bristol-Myers Squibb Company, priority 2021, published 2025).

Molecular target: Helios (Homo sapiens, UniProt Q96SW2+Q9UKS7)
Assay: Helios Human T Regulatory Cells Degradation Assay
Type: cell-based
Design: fluorescently labelled antibodies against Helios in 1× Permeabilization buffer; endogenous in cells; host or cells: cryopreserved human T regulatory cells
Details: cryopreserved human T regulatory cells, incubated 20 hours, Helios-APC antibody staining, flow cytometry; read-out: hTreg Helios DC50
In short: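 Cryopreserved human Treg cells thawed in RPMI+10% FBS+20 ng/mL IL-2, rested 3 h, then incubated with compound 20 hours at 37° C, 5% CO2. Near-IR viability stain, permeabilization, flow cytometry read-out.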

Helios, sequence (Q9UKS7 whole entry): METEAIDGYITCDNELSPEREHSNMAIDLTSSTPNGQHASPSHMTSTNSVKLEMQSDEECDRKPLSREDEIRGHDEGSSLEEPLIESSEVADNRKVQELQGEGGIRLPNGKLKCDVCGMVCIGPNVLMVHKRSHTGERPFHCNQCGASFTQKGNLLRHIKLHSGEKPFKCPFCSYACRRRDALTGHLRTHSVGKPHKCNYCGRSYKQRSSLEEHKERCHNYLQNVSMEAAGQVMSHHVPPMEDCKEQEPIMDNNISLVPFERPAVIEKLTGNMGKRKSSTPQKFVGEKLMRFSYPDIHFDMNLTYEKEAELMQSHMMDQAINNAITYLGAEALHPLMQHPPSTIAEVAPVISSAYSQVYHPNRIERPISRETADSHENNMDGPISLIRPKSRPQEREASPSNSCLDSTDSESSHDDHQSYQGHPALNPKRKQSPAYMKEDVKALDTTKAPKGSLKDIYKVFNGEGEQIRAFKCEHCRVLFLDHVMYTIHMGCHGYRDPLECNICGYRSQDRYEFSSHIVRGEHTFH
Helios, sequence (Q96SW2 whole entry): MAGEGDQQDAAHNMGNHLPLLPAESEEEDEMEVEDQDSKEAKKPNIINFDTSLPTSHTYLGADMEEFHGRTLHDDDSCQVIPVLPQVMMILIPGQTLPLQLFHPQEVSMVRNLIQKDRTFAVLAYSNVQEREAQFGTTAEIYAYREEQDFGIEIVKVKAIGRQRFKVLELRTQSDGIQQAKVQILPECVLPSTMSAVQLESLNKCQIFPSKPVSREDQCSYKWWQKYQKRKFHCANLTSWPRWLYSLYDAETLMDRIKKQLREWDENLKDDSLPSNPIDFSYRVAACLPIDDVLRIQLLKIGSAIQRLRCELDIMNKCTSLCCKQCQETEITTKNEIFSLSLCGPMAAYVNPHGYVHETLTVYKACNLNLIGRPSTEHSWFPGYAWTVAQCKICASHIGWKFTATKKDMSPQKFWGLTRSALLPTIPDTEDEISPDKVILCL
Helios, sequence (Q16531 whole entry partner): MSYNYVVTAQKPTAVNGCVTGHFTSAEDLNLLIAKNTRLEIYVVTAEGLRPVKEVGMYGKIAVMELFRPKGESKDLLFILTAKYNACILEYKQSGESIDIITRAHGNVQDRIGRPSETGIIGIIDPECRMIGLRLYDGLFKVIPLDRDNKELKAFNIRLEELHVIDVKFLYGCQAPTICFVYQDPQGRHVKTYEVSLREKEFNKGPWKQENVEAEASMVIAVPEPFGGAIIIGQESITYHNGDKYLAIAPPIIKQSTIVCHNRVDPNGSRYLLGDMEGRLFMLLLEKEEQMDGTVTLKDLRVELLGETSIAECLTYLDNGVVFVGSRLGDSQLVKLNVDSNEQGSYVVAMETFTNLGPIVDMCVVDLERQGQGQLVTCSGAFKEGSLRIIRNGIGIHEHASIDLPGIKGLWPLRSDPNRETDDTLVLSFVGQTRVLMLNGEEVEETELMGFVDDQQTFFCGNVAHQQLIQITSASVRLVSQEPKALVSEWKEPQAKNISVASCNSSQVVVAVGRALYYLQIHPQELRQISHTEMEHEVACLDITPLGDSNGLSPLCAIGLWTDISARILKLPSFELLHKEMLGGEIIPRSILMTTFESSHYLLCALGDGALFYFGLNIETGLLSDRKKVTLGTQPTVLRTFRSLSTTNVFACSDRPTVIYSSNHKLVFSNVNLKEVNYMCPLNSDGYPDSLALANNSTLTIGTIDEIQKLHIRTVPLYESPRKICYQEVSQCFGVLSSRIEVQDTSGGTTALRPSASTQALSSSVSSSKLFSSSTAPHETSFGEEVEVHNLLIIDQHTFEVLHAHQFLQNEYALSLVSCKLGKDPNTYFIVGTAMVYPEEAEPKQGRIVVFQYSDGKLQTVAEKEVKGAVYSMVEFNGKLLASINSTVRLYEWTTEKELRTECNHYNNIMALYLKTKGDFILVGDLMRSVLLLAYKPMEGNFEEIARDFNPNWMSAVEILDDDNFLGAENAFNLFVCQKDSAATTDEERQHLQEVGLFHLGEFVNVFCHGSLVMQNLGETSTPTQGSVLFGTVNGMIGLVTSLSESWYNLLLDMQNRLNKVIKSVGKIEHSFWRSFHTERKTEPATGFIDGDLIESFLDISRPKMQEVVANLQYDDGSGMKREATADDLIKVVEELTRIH

Row | DC50 [µM] | SMILES
1 | 0.492 | CC1(O)CC2CN(Cc3ccnc(-c4ccc5c(c4)CN(C4CCC(=O)NC4=O)C5=O)c3F)CC2C1 (stereo not drawn) [Example 255, 3-(5-(3-fluoro-4-((5-hydroxy-5-methylhexahydrocyclopenta[c]pyrrol-2(1H)-yl)methyl)pyridin-2-yl)-1-oxoisoindolin-2-yl)piperidine-2,6-dione]
2 | 1.14 | Cc1ccc(C)c(C2(O)CCN(Cc3ccnc(-c4ccc5c(c4)CN(C4CCC(=O)NC4=O)C5=O)c3F)C2)c1 (stereo not drawn) [Example 256, 3-(5-(4-((3-(2,5-dimethylphenyl)-3-hydroxypyrrolidin-1-yl)methyl)-3-fluoropyridin-2-yl)-1-oxoisoindolin-2-yl)piperidine-2,6-dione]
3 | ≥ 10 | O=C1CCC(N2Cc3cc(-c4nccc(CN5CCC(O)(c6ccccc6)C5)c4F)ccc3C2=O)C(=O)N1 (stereo not drawn) [Example 257, 3-(5-(3-fluoro-4-((3-hydroxy-3-phenylpyrrolidin-1-yl)methyl)pyridin-2-yl)-1-oxoisoindolin-2-yl)piperidine-2,6-dione]
4 | ≥ 10 | O=C1CCC(N2Cc3cc(-c4nccc(CN5CC[C@@H](F)C5)c4F)ccc3C2=O)C(=O)N1 (stereo partly drawn) [Example 258, 3-(5-(3-fluoro-4-(((R)-3-fluoropyrrolidin-1-yl)methyl)pyridin-2-yl)-1-oxoisoindolin-2-yl)piperidine-2,6-dione]
5 | ≥ 10 | O=C1CCC(N2Cc3cc(-c4nccc(CN5CCc6oncc6C5)c4F)ccc3C2=O)C(=O)N1 (stereo not drawn) [Example 259, 3-(5-(4-((6,7-dihydroisoxazolo[4,5-c]pyridin-5(4H)-yl)methyl)-3-fluoropyridin-2-yl)-1-oxoisoindolin-2-yl)piperidine-2,6-dione]
6 | 0.14 | O=C1CCC(N2Cc3cc(-c4nccc(CN5CCC(F)CC5)c4F)ccc3C2=O)C(=O)N1 (stereo not drawn) [Example 260, 3-(5-(3-fluoro-4-((4-fluoropiperidin-1-yl)methyl)pyridin-2-yl)-1-oxoisoindolin-2-yl)piperidine-2,6-dione]
7 | ≥ 10 | O=C1CCC(N2Cc3cc(-c4nccc(CN5CCC(F)(F)CC5)c4F)ccc3C2=O)C(=O)N1 (stereo not drawn) [Example 261, 3-(5-(4-((4,4-difluoropiperidin-1-yl)methyl)-3-fluoropyridin-2-yl)-1-oxoisoindolin-2-yl)piperidine-2,6-dione]
8 | ≥ 10 | Cc1nnc2n1CCN(Cc1ccnc(-c3ccc4c(c3)CN(C3CCC(=O)NC3=O)C4=O)c1F)C2 (stereo not drawn) [Example 262, 3-(5-(3-fluoro-4-((3-methyl-5,6-dihydro-[1,2,4]triazolo[4,3-a]pyrazin-7(8H)-yl)methyl)pyridin-2-yl)-1-oxoisoindolin-2-yl)piperidine-2,6-dione]
9 | 1.23 | O=C1CCC(N2Cc3cc(-c4nccc(CN5CCn6cnnc6C5)c4F)ccc3C2=O)C(=O)N1 (stereo not drawn) [Example 263, 3-(5-(4-((5,6-dihydro-[1,2,4]triazolo[4,3-a]pyrazin-7(8H)-yl)methyl)-3-fluoropyridin-2-yl)-1-oxoisoindolin-2-yl)piperidine-2,6-dione]
10 | ≥ 10 | Cc1c2c(nn1C)CCN(Cc1ccnc(-c3ccc4c(c3)CN(C3CCC(=O)NC3=O)C4=O)c1F)C2 (stereo not drawn) [Example 265, 3-(5-(4-((2,3-dimethyl-2,4,6,7-tetrahydro-5H-pyrazolo[4,3-c]pyridin-5-yl)methyl)-3-fluoropyridin-2-yl)-1-oxoisoindolin-2-yl)piperidine-2,6-dione]
11 | ≥ 10 | O=C1CCC(N2Cc3cc(-c4nccc(CN5CCn6c(nnc6C(F)(F)F)C5)c4F)ccc3C2=O)C(=O)N1 (stereo not drawn) [Example 266, 3-(5-(3-fluoro-4-((3-(trifluoromethyl)-5,6-dihydro-[1,2,4]triazolo[4,3-a]pyrazin-7(8H)-yl)methyl)pyridin-2-yl)-1-oxoisoindolin-2-yl)piperidine-2,6-dione]
12 | ≥ 10 | O=C1CCC(N2Cc3cc(-c4nccc(CN5CCc6c(ccnc6Cl)C5)c4F)ccc3C2=O)C(=O)N1 (stereo not drawn) [Example 267, 3-(5-(4-((5-chloro-3,4-dihydro-2,6-naphthyridin-2(1H)-yl)methyl)-3-fluoropyridin-2-yl)-1-oxoisoindolin-2-yl)piperidine-2,6-dione]
13 | ≥ 10 | O=C1CCC(N2Cc3cc(-c4nccc(CN5CCc6cccc(Cl)c6C5)c4F)ccc3C2=O)C(=O)N1 (stereo not drawn) [Example 268, 3-(5-(4-((8-chloro-3,4-dihydroisoquinolin-2(1H)-yl)methyl)-3-fluoropyridin-2-yl)-1-oxoisoindolin-2-yl)piperidine-2,6-dione]
14 | ≥ 10 | CC(=O)N1CCCC12CCN(Cc1ccnc(-c3ccc4c(c3)CN(C3CCC(=O)NC3=O)C4=O)c1F)C2 (stereo not drawn) [Example 270, 3-(5-(4-((1-acetyl-1,7-diazaspiro[4.4]nonan-7-yl)methyl)-3-fluoropyridin-2-yl)-1-oxoisoindolin-2-yl)piperidine-2,6-dione]
15 | ≥ 10 | COC(=O)N1CCCC12CCN(Cc1ccnc(-c3ccc4c(c3)CN(C3CCC(=O)NC3=O)C4=O)c1F)C2 (stereo not drawn) [Example 271, methyl 7-((2-(2-(2,6-dioxopiperidin-3-yl)-1-oxoisoindolin-5-yl)-3-fluoropyridin-4-yl)methyl)-1,7-diazaspiro[4.4]nonane-1-carboxylate]
16 | 0.28 | CC(=O)N1CCC2(CN(Cc3ccnc(-c4ccc5c(c4)CN(C4CCC(=O)NC4=O)C5=O)c3F)C2)C1 (stereo not drawn) [Example 272, 3-(5-(4-((6-acetyl-2,6-diazaspiro[3.4]octan-2-yl)methyl)-3-fluoropyridin-2-yl)-1-oxoisoindolin-2-yl)piperidine-2,6-dione]
17 | 0.28 | COC(=O)N1CCC2(CN(Cc3ccnc(-c4ccc5c(c4)CN(C4CCC(=O)NC4=O)C5=O)c3F)C2)C1 (stereo not drawn) [Example 273, methyl 2-((2-(2-(2,6-dioxopiperidin-3-yl)-1-oxoisoindolin-5-yl)-3-fluoropyridin-4-yl)methyl)-2,6-diazaspiro[3.4]octane-6-carboxylate]
18 | ≥ 10 | CC(=O)N1CC2CCCN(Cc3ccnc(-c4ccc5c(c4)CN(C4CCC(=O)NC4=O)C5=O)c3F)C2C1 (stereo not drawn) [Example 274, 3-(5-(4-((6-acetyloctahydro-1H-pyrrolo[3,4-b]pyridin-1-yl)methyl)-3-fluoropyridin-2-yl)-1-oxoisoindolin-2-yl)piperidine-2,6-dione]
19 | ≥ 10 | COC(=O)N1CC2CCCN(Cc3ccnc(-c4ccc5c(c4)CN(C4CCC(=O)NC4=O)C5=O)c3F)C2C1 (stereo not drawn) [Example 275, methyl 1-((2-(2-(2,6-dioxopiperidin-3-yl)-1-oxoisoindolin-5-yl)-3-fluoropyridin-4-yl)methyl)octahydro-6H-pyrrolo[3,4-b]pyridine-6-carboxylate]
20 | 0.028 | CC(C)(O)C1CCN(Cc2ccnc(-c3ccc4c(c3F)CN(C3CCC(=O)NC3=O)C4=O)c2F)CC1 (stereo not drawn) [Example 276, 3-(4-fluoro-5-(3-fluoro-4-((4-(2-hydroxypropan-2-yl)piperidin-1-yl)methyl)pyridin-2-yl)-1-oxoisoindolin-2-yl)piperidine-2,6-dione]
21 | 0.0319 | O=C1CCC(N2Cc3c(ccc(-c4nccc(CN5CC[C@H](CO)C5)c4F)c3F)C2=O)C(=O)N1 (stereo partly drawn) [Example 277, 3-(4-fluoro-5-(3-fluoro-4-(((S)-3-(hydroxymethyl)pyrrolidin-1-yl)methyl)pyridin-2-yl)-1-oxoisoindolin-2-yl)piperidine-2,6-dione]
